Measurements reported in patent publication US11566017B2, “Dihydroquinazolinone compound or pharmacologically acceptable salt, and cell growth inhibitor” (RIKEN, priority 2017, dated 2023).

How the values were obtained:
[1] = tested on: tubulin (microtubule polymerization); experiment: Microtubule polymerization inhibition test (fluorescence kit BK011P); format: biochemical; details: 60 min
Method: Using a microtubule polymerization reaction measurement kit (Cytoskeleton Inc.; BK011P), the microtubule polymerization inhibitory activity of the compound (test compound) prepared in each of Examples was evaluated on the basis of the standard protocol of the kit. Solutions with concentrations of 30 μM and 150 μM were prepared by dissolving the test compound in DMSO, and used as test compound solutions (with final concentrations of 3 μM and 15 μM, respectively). DMSO was used as a negative control solution, and vincristine (final concentration: 3 μM) was used as a positive control solution.
5 μL of the test compound solution or each control solution, and 50 μL of a microtubule-containing reaction mixture (1×Buffer 1; 1 mM GTP; 15% glycerol; and tubulin with a concentration of 2 mg/mL) were added to a 96-well plate (Corning Costar Company; #3686) warmed to 37° C., and a change in fluorescence of the reaction solution was measured over 1 hour. A higher fluorescence intensity means a higher degree of progression of polymerization of microtubules. The composition of Buffer 1 and the fluorescence measurement conditions employed in the analysis are shown below.
80 mM Piperazine-N,N′-bis[2-ethanesulfonic acid] sequisodium salt; 2.0 mM Magnesium chloride; 0.5 mM Ethylene glycol-bis (β-amino-ethyl ether)N,N,N′,N′-tetra-acetic acid; 10 μM fluorescent reporter
Measurement wavelength: 360 nm (excitation wavelength) and 450 nm (emission wavelength)
Measurement time: 60 min (1 cycle/min)
Equipment used: Microplatereader SpectraMax M2 (Molecular Devices Company)

tankyrase 1 (TNKS1) = molecular target: T1, tankyrase 1 (TNKS1) (Homo sapiens, UniProt O95271); experiment: Tankyrase inhibitory activity test (ELISA, auto-poly(ADP-ribosyl)ation), tankyrase 1; format: biochemical; details: Flag tagged tankyrase 1 (1,024-1,327aa, SAM+PARP); read-out: TNKS1 (inhibitory activity against tankyrase 1, IC50)
T1 construct: tankyrase 1 (1,024-1,327aa, SAM+PARP); made in house; host or cells: cell-free protein expression system
T1 sequence (O95271 1024-1327): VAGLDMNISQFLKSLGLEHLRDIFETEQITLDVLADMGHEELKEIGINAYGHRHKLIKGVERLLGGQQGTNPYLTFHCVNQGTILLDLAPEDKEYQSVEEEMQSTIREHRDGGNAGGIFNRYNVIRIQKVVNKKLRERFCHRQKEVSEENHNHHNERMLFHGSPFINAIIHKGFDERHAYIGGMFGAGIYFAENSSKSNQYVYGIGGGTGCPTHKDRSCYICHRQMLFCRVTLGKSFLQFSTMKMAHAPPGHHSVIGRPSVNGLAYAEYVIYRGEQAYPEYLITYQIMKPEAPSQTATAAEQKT
Outline: (§1)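 Cell-free-expressed Flag-tagged TNKS1 (1,024-1,327aa, SAM+PARP) or TNKS2 (613-1,116aa, ANK5+SAM+PARP) was captured on anti-FLAG plates and pre-incubated 10 min at RT with compound (pH 8.0, MgCl2, DTT). Auto-PARylation was started with NAD solution (225 μM NAD, 25 μM biotin-NAD), 45 min at 30 °C. Detection by HRP-streptavidin chemiluminescence; IC50 from residual activity.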

tankyrase 2 (TNKS2) = molecular target: T2, tankyrase 2 (TNKS2) (Homo sapiens, UniProt Q9H2K2); experiment: Tankyrase inhibitory activity test (ELISA, auto-poly(ADP-ribosyl)ation), tankyrase 2; format: biochemical; details: Flag tagged tankyrase 2 (613-1,116aa, ANK5+SAM+PARP); read-out: TNKS2 (inhibitory activity against tankyrase 2, IC50)
T2 construct: tankyrase 2 (613-1,116aa, ANK5+SAM+PARP); made in house; host or cells: cell-free protein expression system
Outline: as §1

[2] = tested on: human colorectal cancer cell line COLO-320DM; experiment: Cell proliferation inhibitory activity test (Celltiter-Glo); format: cell-based; details: COLO-320DM cells, 96 hours
[3] = racemates, 3 μM (FIG. 1A) and 15 μM (FIG. 1B)

Row | Compound | microtubule polymerization: increase in fluorescence intensity [1, 3] | IC50 (tankyrase 1 (TNKS1)) | IC50 (tankyrase 2 (TNKS2)) | GI50 [2] | microtubule polymerization: increase in fluorescence intensity ([1]; positive control, final concentration 3 μM)
1 | COc1ccc(-c2n[nH]nc2C2NC(=O)c3cccc(C)c3N2)cc1 (racemic) [Example 65, 2-[5-(4-Methoxyphenyl)-2H-1,2,3-triazol-4-yl]-8-methyl-2,3-dihydro-1H-quinazolin-4-one] | slower increase in fluorescence intensity as compared to the DMSO control | 0.005 to 0.02 µM | < 0.005 µM | < 1 µM | –
2 | COc1ccc(-c2n[nH]nc2C2NC(=O)c3cccc4c3N2CC4)cc1 (racemic) [Example 69, 11-[5-(4-Methoxyphenyl)-2H-1,2,3-triazol-4-yl]-1,10-diazatricyclo[6.3.1.0^4,12]dodeca-4(12),5,7-trien-9-one] | slower increase in fluorescence intensity as compared to the DMSO control | 0.005 to 0.02 µM | 0.005 to 0.02 µM | 1 to 10 µM | –
3 | CCOc1ccc(-c2n[nH]nc2C2NC(=O)c3cccc(C)c3N2)cc1 (racemic) [Example 70, 2-[5-(4-Ethoxyphenyl)-2H-1,2,3-triazol-4-yl]-8-methyl-2,3-dihydro-1H-quinazolin-4-one] | slower increase in fluorescence intensity as compared to the DMSO control | 0.005 to 0.02 µM | < 0.005 µM | < 1 µM | –
4 | COc1ccc(-c2n[nH]nc2C2NC(=O)c3cccc(O)c3N2)cc1 (stereo not shown) [Example 67, 8-Hydroxy-2-[5-(4-methoxyphenyl)-2H-1,2,3-triazol-4-yl]-2,3-dihydro-1H-quinazolin-4-one] | – | 0.005 to 0.02 µM | 0.005 to 0.02 µM | ≥ 10 µM | –
5 | COc1ccc(-c2n[nH]nc2C2NC(=O)c3cccc4c3N2CCO4)cc1 (stereo not shown) [Example 68, 2-[5-(4-Methoxyphenyl)-2H-1,2,3-triazol-4-yl]-10-oxa-1,3-diazatricyclo[7.3.1.0^5,13]trideca-5,7,9(13)-trien-4-one] | – | 0.005 to 0.02 µM | 0.005 to 0.02 µM | 1 to 10 µM | –
6 | COc1ccc(-c2n[nH]nc2C2NC(=O)c3cccc(C(F)(F)F)c3N2)cc1 (stereo not shown) [Example 71, 2-[5-(4-Methoxyphenyl)-2H-1,2,3-triazol-4-yl]-8-(trifluoromethyl)-2,3-dihydro-1H-quinazolin-4-one] | – | 0.02 to 0.05 µM | 0.02 to 0.05 µM | 1 to 10 µM | –
7 | Cc1cccc2c1NC(c1n[nH]nc1-c1ccc(OCC(F)(F)F)cc1)NC2=O (stereo not shown) [Example 72, 8-Methyl-2-[4-[4-(2,2,2-trifluoroethoxy)phenyl]-2H-1,2,3-triazol-5-yl]-2,3-dihydro-1H-quinazolin-4-one] | – | 0.005 to 0.02 µM | 0.005 to 0.02 µM | 1 to 10 µM | –
8 | Cc1cccc2c1NC(c1n[nH]nc1-c1ccc(OC(F)F)cc1)NC2=O (stereo not shown) [Example 73, 2-[4-[4-(Difluoromethoxy)phenyl]-2H-1,2,3-triazol-5-yl]-8-methyl-2,3-dihydro-1H-quinazolin-4-one] | – | 0.02 to 0.05 µM | 0.02 to 0.05 µM | ≥ 10 µM | –
9 | CCCOc1ccc(-c2n[nH]nc2C2NC(=O)c3cccc(C)c3N2)cc1 (stereo not shown) [Example 74, 8-Methyl-2-[5-(4-propoxyphenyl)-2H-1,2,3-triazol-4-yl]-2,3-dihydro-1H-quinazolin-4-one] | – | 0.005 to 0.02 µM | 0.005 to 0.02 µM | 1 to 10 µM | –
10 | CCOc1ccc(-c2n[nH]nc2C2NC(=O)c3cccc4c3N2CC4)cc1 (stereo not shown) [Example 75, 11-[5-(4-Ethoxyphenyl)-2H-1,2,3-triazol-4-yl]-1,10-diazatricyclo[6.3.1.0^4,12]dodeca-4(12),5,7-trien-9-one] | – | 0.005 to 0.02 µM | 0.005 to 0.02 µM | 1 to 10 µM | –
11 | Cc1cccc2c1NC(c1n[nH]nc1-c1ccc(OC(C)C)cc1)NC2=O (stereo not shown) [Example 76, 8-Methyl-2-[5-(4-propan-2-yloxyphenyl)-2H-1,2,3-triazol-4-yl]-2,3-dihydro-1H-quinazolin-4-one] | – | 0.02 to 0.05 µM | 0.005 to 0.02 µM | 1 to 10 µM | –
12 | [2H]C([2H])([2H])Oc1ccc(-c2n[nH]nc2C2NC(=O)c3cccc(C)c3N2)cc1 (stereo not shown) [Example 77] | – | 0.005 to 0.02 µM | 0.005 to 0.02 µM | < 1 µM | –
13 | Cc1cccc2c1NC(c1n[nH]nc1-c1ccc(OCC(F)F)cc1)NC2=O (stereo not shown) [Example 78, 2-[4-[4-(2,2-Difluoroethoxy)phenyl]-2H-1,2,3-triazol-5-yl]-8-methyl-2,3-dihydro-1H-quinazolin-4-one] | – | 0.005 to 0.02 µM | < 0.005 µM | 1 to 10 µM | –
14 | CCOC(=O)COc1ccc(-c2n[nH]nc2C2NC(=O)c3cccc(C)c3N2)cc1 (stereo not shown) [Example 79] | – | 0.005 to 0.02 µM | 0.005 to 0.02 µM | ≥ 10 µM | –
15 | CCOc1ccc(-c2n[nH]nc2C2NC(=O)c3cccc(CC)c3N2)cc1 (stereo not shown) [Example 80, 2-[5-(4-Ethoxyphenyl)-2H-1,2,3-triazol-4-yl]-8-ethyl-2,3-dihydro-1H-quinazolin-4-one] | – | 0.005 to 0.02 µM | 0.005 to 0.02 µM | < 1 µM | –
16 | CCc1cccc2c1NC(c1n[nH]nc1-c1ccc(OC)cc1)NC2=O (stereo not shown) [Example 81, 8-Ethyl-2-[4-(4-methoxyphenyl)-2H-1,2,3-triazol-5-yl]-2,3-dihydro-1H-quinazolin-4-one] | – | 0.005 to 0.02 µM | < 0.005 µM | 1 to 10 µM | –
17 | COc1ccc(-c2n[nH]cc2C2NC(=O)c3ccccc3N2)cc1 (stereo not shown) [Example 82, 2-[5-(4-Methoxyphenyl)-1H-pyrazol-4-yl]-2,3-dihydro-1H-quinazolin-4-one] | – | 0.005 to 0.02 µM | 0.005 to 0.02 µM | ≥ 10 µM | –
18 | COc1ccc(-c2n[nH]cc2C2NC(=O)c3ccccc3N2C)cc1 (stereo not shown) [Example 83, 2-[5-(4-Methoxyphenyl)-1H-pyrazol-4-yl]-1-methyl-2,3-dihydroquinazolin-4-one] | – | 0.005 to 0.02 µM | 0.005 to 0.02 µM | 1 to 10 µM | –
19 | O=C1NC(c2n[nH]nc2-c2ccc(OCC(F)F)cc2)N2CCc3cccc1c32 (stereo not shown) [Example 84, 11-[5-[4-(2,2-Difluoroethoxy)phenyl]-2H-1,2,3-triazol-4-yl]-1,10-diazatricyclo[6.3.1.0^4,12]dodeca-4(12),5,7-trien-9-one] | – | 0.005 to 0.02 µM | 0.005 to 0.02 µM | ≥ 10 µM | –
20 | COc1ccc(-c2c[nH]nc2C2NC(=O)c3ccccc3N2)cc1 (stereo not shown) [Example 85, 2-[4-(4-Methoxyphenyl)-1H-pyrazol-3-yl]-2,3-dihydro-1H-quinazolin-4-one] | – | 0.005 to 0.02 µM | < 0.005 µM | 1 to 10 µM | –
21 | COc1ccc(-c2c[nH]nc2C2NC(=O)c3ccccc3N2C)cc1 (stereo not shown) [Example 86, 2-[4-(4-Methoxyphenyl)-1H-pyrazol-3-yl]-1-methyl-2,3-dihydro-1H-quinazolin-4-one] | – | < 0.005 µM | < 0.005 µM | 1 to 10 µM | –
22 | COc1ccc(-c2c[nH]nc2C2NC(=O)c3cccc(C)c3N2)cc1 (stereo not shown) [Example 87, 2-[4-(4-Methoxyphenyl)-1H-pyrazol-3-yl]-8-methyl-2,3-dihydro-1H-quinazolin-4-one] | – | < 0.005 µM | < 0.005 µM | 1 to 10 µM | –
23 | CC[C@]1(O)C[C@H]2CN(CCc3c([nH]c4ccccc34)[C@@](C(=O)OC)(c3cc4c(cc3OC)N(C=O)[C@H]3[C@@](O)(C(=O)OC)[C@H](OC(C)=O)[C@]5(CC)C=CCN6CC[C@]43[C@@H]65)C2)C1 [vincristine, reference compound] | – | – | – | – | slower increase in fluorescence intensity as compared to the DMSO control
